Laboratory results: US20240190883A1, “KRAS PROTEIN DEGRADERS, PHARMACEUTICAL COMPOSITIONS THEREOF, AND THEIR THERAPEUTIC APPLICATIONS” (BioTheryX, Inc., priority 2021, published 2024)

How the values were obtained:
Format in all cases: cell-based
H358 (G12C) cells = assay: Cell viability assay (CELLTITER-GLO), H358 cells; conditions: Homo sapiens, NCI-H358, 72 h, 3 days incubation, 2.5% fetal bovine serum, read-out: Inhibition of Cancerous Cells IC50 (μM) H358 (G12C)
Protocol: (§1) H358, H23, SW48, and AsPC-1 cells were cultured in RPMI 1640 media supplemented with 10% fetal bovine serum, streptomycin, and penicillin. Lovo and SW480 cells were cultured in DMEM media supplemented with 10% fetal bovine serum, streptomycin, and penicillin. The cell lines were plated in their respective medium supplemented with 2.5% fetal bovine serum, streptomycin, and penicillin. All cell lines were plated in white walled 96-well plates at 2,000 cells/well or 384-well plates at 500 cells/well, except Lovo, which were plated at 4,000 or 1,000 cells/well, respectively. The cells were incubated in DMSO (control) or a compound for 3 days at 37° C. under 5% C02. A CELLTITER-GLO® reagent (100 μL) was then added to each well. After a 10 min incubation with shaking, luminescence was measured using an ENVISION® multimode plate reader. IC50 values are summarized in Table 1 and percentages of inhibition are summarized in Table 2, where compound T1 is 2-(4-(2-methyl-3,5-diphenylpyrazolo[1,5-a]pyrimidin-7-yl)piperazin-1-yl)ethan-1-ol.

Lovo (G13D) cells = assay: Cell viability assay (CELLTITER-GLO), Lovo cells; conditions: Homo sapiens, 72 h, 3 days incubation, 2.5% fetal bovine serum, read-out: Inhibition of Cancerous Cells IC50 (μM) Lovo (G13D)
Protocol: as §1

SW480 (G12V) cells = assay: Cell viability assay (CELLTITER-GLO), SW480 cells; conditions: Homo sapiens, 72 h, 3 days incubation, 2.5% fetal bovine serum, read-out: Inhibition of Cancerous Cells IC50 (μM) SW480 (G12V)
Protocol: as §1

H23 cells = assay: Cell viability assay (CELLTITER-GLO), H23 cells; conditions: Homo sapiens, NCI-H23, 72 h, 3 days incubation, 2.5% fetal bovine serum, read-out: Inhibition of Cancerous Cells IC50 (μM) H23
Protocol: as §1

SW48 (wt) cells = assay: Cell viability assay (CELLTITER-GLO), SW48 cells; conditions: Homo sapiens, 72 h, 3 days incubation, 2.5% fetal bovine serum, read-out: Inhibition of Cancerous Cells IC50 (μM) SW48 (wt)
Protocol: as §1

KRAS protein [1] = target: T1, KRAS protein (Homo sapiens, UniProt P01116, G13D); assay: HIBIT degradation assay, H647 cells; conditions: 24 h, HiBiT signal normalized to CTG signal; for Effect on KRAS Protein Degradation, H647, 3 μM: compound at 3 μM
T1 construct: engineered to express a Hobbit-tagged endogenous KRAS protein; endogenous in cells; host or cells: H647, endogenous KRAS locus engineered with a HiBiT tag
T1 sequence (P01116 1-185 isoform P01116-2 G13D limits assumed): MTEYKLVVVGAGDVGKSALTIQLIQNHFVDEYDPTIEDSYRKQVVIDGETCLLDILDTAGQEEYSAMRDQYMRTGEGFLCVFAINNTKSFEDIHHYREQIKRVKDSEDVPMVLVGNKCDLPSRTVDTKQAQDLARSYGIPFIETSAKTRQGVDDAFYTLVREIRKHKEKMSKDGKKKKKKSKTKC
Protocol: (§2) HEK293, MIA PaCa-2, AsPc-1, SW620, and H647 cells were engineered to express a […] endogenous KRAS protein. The HEK293 and MIA PaCa-2 cells were cultured in DMEM media supplemented with 10% fetal bovine serum, streptomycin, and penicillin. The AsPc-1, SW620, and H647 were cultured in RPMI media supplemented with 10% fetal bovine serum, streptomycin, and penicillin. The cells were seeded in white walled 96-well plates at 20,000 cells/well in 100 μL culture media in duplicate plates. After incubated at 37° C. under 5% CO2 overnight, the cells were treated with DMSO (control) or a compound, followed by the addition of 100 μL culture media to each well. After the cells were incubated for 24 h at 37° C. under 5% C02, 150 μL media were removed from each well and 50 μL NANOGLO-LGBIT lytic reagent were added to each well, and 50 μL CELLTITER-GLO (CTG) reagent was added to the duplicate plate. Following a 10-minute incubation with shaking, luminescence was measured using a Perkin Elmer ENVISION multimode plate reader. HiBiT signal was normalized to CTG signal. The results are summarized in Table 3, where “A” represents a percentage degradation value of no less than 50%; “B” represents a percentage degradation value of less than 50% and no less than 25%; “C” represents a percentage degradation value of less than 25% and no less than 10%; and “D” represents a percentage degradation value of less than 10%.

KRAS protein [2] = target: T2, KRAS protein (Homo sapiens, UniProt P01116, G12D); assay: HIBIT degradation assay, AsPC-1 cells; conditions: 24 h, HiBiT signal normalized to CTG signal; for Effect on KRAS Protein Degradation, AsPC-1, 3 μM: compound at 3 μM; for Effect on KRAS Protein Degradation, AsPC-1, 5 μM: compound at 5 μM
T2 construct: engineered to express a Hobbit-tagged endogenous KRAS protein; endogenous in cells; host or cells: AsPC-1, endogenous KRAS locus engineered with a HiBiT tag
T2 sequence (P01116 1-188 isoform P01116-2 G12D): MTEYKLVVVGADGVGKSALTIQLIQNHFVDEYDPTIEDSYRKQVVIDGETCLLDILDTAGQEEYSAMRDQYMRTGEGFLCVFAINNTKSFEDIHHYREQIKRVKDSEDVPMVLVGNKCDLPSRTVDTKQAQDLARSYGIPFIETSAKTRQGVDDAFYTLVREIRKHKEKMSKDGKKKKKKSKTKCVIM
Protocol: as §2

Molm-13 cells = assay: Cell viability assay, inhibition of Molm-13 cells; conditions: Homo sapiens; for inhibition at 1 µM: compound at 1 μM; for inhibition at 3 µM: compound at 3 μM
Protocol: [Worded in the source for another cell line; this cell line is reported under the same test.] as §1

KRAS protein [3] = target: T3, KRAS protein (Homo sapiens, UniProt P01116); assay: HIBIT degradation assay, HEK293 cells; conditions: 24 h, HiBiT signal normalized to CTG signal; for Effect on KRAS Protein Degradation, HEK293, 3 μM: compound at 3 μM; for Effect on KRAS Protein Degradation, HEK293, 5 μM: compound at 5 μM
T3 construct: engineered to express a Hobbit-tagged endogenous KRAS protein; endogenous in cells; host or cells: HEK293, endogenous KRAS locus engineered with a HiBiT tag
T3 sequence (P01116 1-188 isoform P01116-2): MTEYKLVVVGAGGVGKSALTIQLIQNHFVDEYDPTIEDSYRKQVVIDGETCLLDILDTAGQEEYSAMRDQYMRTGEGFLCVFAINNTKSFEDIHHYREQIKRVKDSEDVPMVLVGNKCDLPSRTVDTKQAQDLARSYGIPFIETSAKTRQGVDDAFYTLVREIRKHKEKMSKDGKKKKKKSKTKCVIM
Protocol: as §2

KRAS protein [4] = target: T4, KRAS protein (Homo sapiens, UniProt P01116, G12C); assay: HIBIT degradation assay, MIA PaCa-2 cells; conditions: 24 h, HiBiT signal normalized to CTG signal; for Effect on KRAS Protein Degradation, MIA PaCa-2, 3 μM: compound at 3 μM; for Effect on KRAS Protein Degradation, MIA PaCa-2, 5 μM: compound at 5 μM
T4 construct: engineered to express a Hobbit-tagged endogenous KRAS protein; endogenous in cells; host or cells: MIA PaCa-2, endogenous KRAS locus engineered with a HiBiT tag
T4 sequence (P01116 whole entry G12C): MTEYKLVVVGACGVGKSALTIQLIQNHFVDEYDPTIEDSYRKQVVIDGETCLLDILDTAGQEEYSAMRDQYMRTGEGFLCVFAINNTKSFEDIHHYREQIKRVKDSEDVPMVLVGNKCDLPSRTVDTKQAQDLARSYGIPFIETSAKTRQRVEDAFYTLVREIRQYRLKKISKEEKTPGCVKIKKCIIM
Protocol: as §2

Row | SMILES | IC50 (H358 (G12C) cells) | IC50 (Lovo (G13D) cells) | IC50 (SW480 (G12V) cells) | IC50 (H23 cells) | IC50 (SW48 (wt) cells) | Effect on KRAS Protein Degradation, H647, 3 μM (KRAS protein [1]) | Effect on KRAS Protein Degradation, H647, 5 μM (KRAS protein [1]; compound at 5 μM) | Effect on KRAS Protein Degradation, AsPC-1, 3 μM (KRAS protein [2]) | Effect on KRAS Protein Degradation, AsPC-1, 5 μM (KRAS protein [2]) | inhibition at 1 µM (Molm-13 cells) | inhibition at 3 µM (Molm-13 cells) | Effect on KRAS Protein Degradation, HEK293, 3 μM (KRAS protein [3]) | Effect on KRAS Protein Degradation, HEK293, 5 μM (KRAS protein [3]) | Effect on KRAS Protein Degradation, MIA PaCa-2, 3 μM (KRAS protein [4]) | Effect on KRAS Protein Degradation, MIA PaCa-2, 5 μM (KRAS protein [4]) | inhibition at 10 µM (Molm-13 cells; compound at 10 μM)
1 | Cc1nn2c(N3CCN(CCO)CC3)cc(-c3cccc(CCCCCCCN4CCC(Nc5cccc(NC6CCC(=O)NC6=O)c5)CC4)c3)nc2c1-c1ccccc1 (stereo not shown) [Compound A1, 3-((3-((1-(7-(3-(7-(4-(2-Hydroxyethyl)piperazin-1-yl)-2-methyl-3-phenyl-pyrazolo[1,5-a]pyrimidin-5-yl)phenyl)heptyl)piperidin-4-yl)amino)phenyl)amino)piperidine-2,6-dione] | 0.9 µM | 0.43 µM | 0.4 µM | 0.81 µM | 0.54 µM |  |  |  |  |  |  |  |  |  |  | 
2 | Cc1nn2c(N3CCN(CCO)CC3)cc(-c3cccc(CCCCCN4CCN(C(=O)CNc5cccc(C6CCC(=O)NC6=O)c5)CC4)c3)nc2c1-c1ccccc1 (stereo not shown) [Compound B5, 3-(3-((2-(4-(5-(3-(7-(4-(2-hydroxyethyl)piperazin-1-yl)-2-methyl-3-phenyl-pyrazolo[1,5-a]pyrimidin-5-yl)phenyl)pentyl)piperazin-1-yl)-2-oxoethyl)amino)phenyl)-piperidine-2,6-dione] | 0.52 µM | 0.31 µM | 0.42 µM | 0.83 µM | 0.45 µM | D (a percentage degradation value of less than 10%) | A (a percentage degradation value of no less than 50%) |  |  |  |  |  |  |  |  | 
3 | Cc1nn2c(N3CCN(CCO)CC3)cc(-c3cccc(CCCCCN4CCN(C(=O)CNc5cccc6c(C7CCC(=O)NC7=O)nn(C)c56)CC4)c3)nc2c1-c1ccccc1 (stereo not shown) [Compound D5, 3-(7-((2-(4-(5-(3-(7-(4-(2-hydroxyethyl)piperazin-1-yl)-2-methyl-3-phenyl-pyrazolo[1,5-a]pyrimidin-5-yl)phenyl)pentyl)piperazin-1-yl)-2-oxoethyl)amino)-1-methyl-1H-indazol-3-yl)piperidine-2,6-dione] | 0.49 µM | 0.27 µM | 0.42 µM | 0.95 µM | 0.5 µM |  |  |  |  |  |  |  |  |  |  | 
4 | Cc1nn2c(N3CCN(CCO)CC3)cc(-c3ccccc3)nc2c1-c1cccc(CCCCCN2CCN(C(=O)CNc3cccc4c(N5CCC(=O)NC5=O)nn(C)c34)CC2)c1 [Compound D17, 1-(7-((2-(4-(5-(3-(7-(4-(2-hydroxyethyl)piperazin-1-yl)-2-methyl-5-phenyl-pyrazolo[1,5-a]pyrimidin-3-yl)phenyl)pentyl)piperazin-1-yl)-2-oxoethyl)amino)-1-methyl-1H-indazol-3-yl)dihydropyrimidine-2,4(1H,3H)-dione] |  |  |  |  |  | C (a percentage degradation value of less than 25% and no less than 10%) |  | B (a percentage degradation value of less than 50% and no less than 25%) | C (a percentage degradation value of less than 25% and no less than 10%) | 34% | 99% | C (a percentage degradation value of less than 25% and no less than 10%) | C (a percentage degradation value of less than 25% and no less than 10%) |  |  | 
5 | Cc1nn2c(N3CCN(CCO)CC3)cc(-c3ccc(F)cc3)nc2c1-c1cccc(CCCCCN2CCN(C(=O)CNc3ccc4c(C5CCC(=O)NC5=O)nn(C)c4c3)CC2)c1 (stereo not shown) [Compound D19, 3-(6-((2-(4-(5-(3-(5-(4-Fluorophenyl)-7-(4-(2-hydroxyethyl)piperazin-1-yl)-2-methylpyrazolo[1,5-a]pyrimidin-3-yl)phenyl)pentyl)piperazin-1-yl)-2-oxoethyl)amino)-1-methyl-1H-indazol-3-yl)piperidine-2,6-dione] |  |  |  |  |  |  |  | C (a percentage degradation value of less than 25% and no less than 10%) | C (a percentage degradation value of less than 25% and no less than 10%) |  |  | D (a percentage degradation value of less than 10%) | D (a percentage degradation value of less than 10%) | D (a percentage degradation value of less than 10%) | C (a percentage degradation value of less than 25% and no less than 10%) | 
6 | Cc1nn2c(N3CCN(CCO)CC3)cc(-c3ccccc3)nc2c1-c1cccc(CCCN2CCN(C(=O)COc3cccc4c(C5CCC(=O)NC5=O)nn(C)c34)CC2)c1 (stereo not shown) [Compound D20, 3-(7-(2-(4-(3-(3-(7-(4-(2-Hydroxyethyl)piperazin-1-yl)-2-methyl-5-phenyl-pyrazolo[1,5-a]pyrimidin-3-yl)phenyl)propyl)piperazin-1-yl)-2-oxoethoxy)-1-methyl-1H-indazol-3-yl)piperidine-2,6-dione] |  |  |  |  |  |  |  | D (a percentage degradation value of less than 10%) | C (a percentage degradation value of less than 25% and no less than 10%) | 0% | 71% |  |  | C (a percentage degradation value of less than 25% and no less than 10%) | C (a percentage degradation value of less than 25% and no less than 10%) | 
7 | Cc1nn2c(N3CCN(CCO)CC3)cc(-c3ccccc3)nc2c1-c1ccccc1 [Compound T1, 2-(4-(2-methyl-3,5-diphenylpyrazolo[1,5-a]pyrimidin-7-yl)piperazin-1-yl)ethan-1-ol, reference compound] | 2.4 µM | 1.3 µM | 0.7 µM | 2.5 µM | 1.9 µM |  |  |  |  | 0% |  |  |  |  |  | 99%
